Where a name gives a salt, the structure may show the parent alone.
Key:
rat subcutaneous tissue = assay: Tissue biocompatibility study of DMF ISFI system (physical inspection for inflammation); type: in vivo, rats; conditions: SC injection; visual observation
Experimental: Tissue biocompatibility study of DMF ISFI system was performed. Mice were separated into three groups i.e., positive control group, test group, negative control group and each group consist of three animals to assess the DMF and ISFI biocompatibility. All of the three groups received different drugs like first group received phosphate buffer of pH 7.4 dispersed DMF, test group was given both drug DMF with the ISFI and the last group were given only ISFI. For all physical signs of inflammation, all the animals were visually observed. Produces responses in experimental animals were graded as 0 for normal, + for mild symptoms, ++ for moderate and +++ used for the severe symptoms. After injecting the drugs in animals, one mouse per group was sacrificed at the interval of 3rd day, 7th day and 14th days. The adjacent tissues were excised and fixed in 10% formalin tamped with phosphate buffer. The tissue was under the observation of optical microscope after the hematoxylin and eosin staining process for the changes in acute inflammatory responses, fibrosis and foreign body reaction. (Anderson and Langone, 1999 and Park and Park, 1999).

[1] = In vivo drug release study (plasma DMF by HPLC after SC injection); parameters: species or system Albino Wistar rats; conditions: rats, S.C.
Experimental: In vivo drug release study was also performed. Albino Wistar rats (275-300 g) were used in the study. Sterile polypropylene cages with paddy husk were used for the housing of experimental animals. Standard food pellets were given to the animals with water ad libitum. Uses of experimental animal were approved by the IAEC (JSSCP, S. S. Nagar, Mysore, India Code No: 132/2013) and for all the purpose of animal welfare the CPCSEA guidelines were followed.
The experimental animals were separated into groups of three and each group consisted of three animals. […] For injecting 0.5 mL of injectable gel, a syringe of 1 mL with the needle of 26-gauge was used.
For the In-vivo detection of Dimethyl Fumarate, an aliquot of blood was drawn from retro orbital sinus of each rat at specified blood collection times. 1.5 mL aliquot of blood from retro orbital sinus was collected in an EDTA coated Eppendorf tube. The tubes were centrifuged at 4° C. and 8000 rpm for 10 min to collect plasma. Plasma was separated into a separate eppendorf tube. Until the screening or assay of plasma samples by using HPLC, the sample was stored at −20° C.
All animals remained in good health throughout the acclimatization and study periods. The cumulative (±SD) plasma concentrations of DMF at the times of sample collection after SC are plotted in FIG. 8. Drug concentration was determined by using HPLC method. […]

For `COC(=O)/C=C/C(=O)OC` [DMF, Dimethyl fumarate], the “inflammatory reaction at physical inspection” value (rat subcutaneous tissue) was “highest inflammation”, the “plasma concentration (final level)” value ([1]; pure drug 1 mg/0.2 mL, group III) was “non-detectable quantities” and the “time after which plasma concentration falls” value ([1]; pure drug 2 mg/0.2 mL, Group I) was 150 h.
